These results are taken from patent EP2632470B1 (priority 2010, dated 2012).

Counter-ions that a name gives are not always drawn.

The term IC50 denotes the concentration that gives 50% inhibition.

The subject of the first test is M. furfur 7982. Put plainly: Fractional Inhibitor Concentration (FIC) test of chelator combined with ZPT. The format is cell-based. Particulars: combination with ZPT (from 12.5ppm); chelator from 400ppm or 800ppm; 33°C, 2 days; average of duplicate plates. An excerpt: Fractional Inhibitor Concentration (FIC) is a conventional methodology for evaluating antimicrobial interactions. In an embodiment of the present invention, an FIC is used to determine combinatorial effects of two chemicals on anti-Malassezia activity in a tissue culture setting.
• 1. Each FIC assay is run in duplicate. • 2. Low levels of M. furfur 7982 cells are inoculated into each well of a 96 well plate. • 3. Chemical #1 (in our assays, this is always ZPT) is titrated (2x concentration reductions) from right to left across each row of the plate, starting at 12.5ppm final concentration and ending at 0ppm. • 4. […] Plates are incubated at 33°C, 60%RH for 2 days with agitation. • 6. Optical densities (OD's) are then determined using a spectrophotometer.
1. […]. The lowest concentration value of chemical #1, both by itself and with the lowest concentration of chemical #1 which boosts chemical #2's potency, that inhibit growth are determined (see Appendix 1). 4. Likewise, the lowest concentration of chemical #2, both by itself and with the lowest concentration of chemical #2 that boosts chemical #1's potency, that inhibit growth are determined (see Appendix 1). 5. The FIC value for the duplicate plates is determined using the calculations below: FIC = (lowest inhibitory dose of Chemical#1 by itself)/(inhibitory dose of Chemical#1 in a well that also contains Chemical#2also contains Chemical#1) + (lowest inhibitory dose of Chemical#2by itselflowest)/(lowest inhibitory dose of Chemical#2in a well that) [formula] ave FIC VALUE = (FIC value for plate 1+FIC value for plate2); 2 [formula] 6. The average FIC value is then determined, and the combinatorial effect of the two chemicals is classified according to the chart below: […]
In the case of “N-Hydroxy-6-octyloxypyridine-2(1H)one, zinc salt [HP-100 Zn]”, the FIC is 0.7. On the same count and under the same terms, the value for Benzohydroxamic acid, Zinc Salt was 0.3. In the case of `CCCCCCCCOc1cccc(=O)n1O` [HP-101, N-Hydroxy-6-octyloxypyridine-2(1H)one, ethanolamine salt], the FIC came to 0.62.

Consider `O=C1c2cccc3cccc(c23)C(=O)N1O` [N,N-Naphthaloylhydroxylamine], for which the FIC is 0.8. The same measure, in the same setting: as for Thiomaltol, Zinc salt, the figure is 0.5.

For the compound `Cc1occc(=S)c1O` [Thiomaltol], the FIC was found to be 0.8. In the case of “1,2-Dimethyl-3-hydroxy-4-pyridone, Zinc salt”, the FIC is given as 0.5. On the same count and under the same terms, as for Maltol, Zinc salt, the figure is 0.1.

A further test deals with Malassezia furfur. Put plainly: Intrinsic anti-Malassezia potency, growth inhibition by optical density. The note with it: Malassezia furfur, read-out: Intrinsic Anti-Malassezia Potency (IC50, µM). The class given is cell-based. As for the experimental part:
To measure the growth inhibition properties of test materials against Malassezia, we carried out the following protocol.
Starting cultures are prepared by incubating with shaking at 31°. Cells (5 ml of culture) are collected by centrifugation and suspended in 50 ml fresh mDixon medium. […] The plates are shaken vigorously on a Heidolph Titramax 100 overnight at 31°. To increase the humidity, water-soaked cotton batting is placed over the plates.
As a control, the optical density of untreated M. furfur is measured after overnight incubation. As another control, the optical density of the starting culture is measured. The difference between these optical densities represents the amount of growth of M. furfur.
Regarding `O=C(O)CN(CC(=O)O)[C@@H]1CCCC[C@H]1N(CC(=O)O)CC(=O)O` (relative stereo) [trans-1,2-Cyclohexylenedinitrilotetraacetic acid], the half-maximal inhibitory concentration (IC50) is 500 µM.

As to `CCC(NCCNC(CC)C(=O)O)C(=O)O` (stereo not shown) [Ethylenediiminodi-2-butanoic acid], the IC50 was greater than 500 µM.

Take `O=C(O)CN(CCN(CC(=O)O)CC(=O)O)CC(=O)O` [Ethylenediaminetetraacetic acid (EDTA), Ethylenediaminetetraacetic acid]: the IC50 is greater than 500 µM. Still for that read-out and setting: the value for `N[C@@H](COP(=O)(O)O)C(=O)O` [L-2-Amino-3-phosphopropanoic acid] was greater than 500 µM. As for `CC(C)c1cccc(O)c(=O)c1` [1-Hydroxy-4-(1-methylethyl)cyclohepta-3,5,7-trien-2-one], the IC50 stood at 65 µM.

Still in this test, the particulars now being: Malassezia furfur; mDixon medium, overnight at 31°, optical density 600 nm; read-out: Intrinsic Anti-Malassezia Potency (IC50).
Consider `Oc1ccc2ccccc2c1N=Nc1nccs1` [1-(2-Thiazoylazo)-2-naphthol], for which the IC50 amounted to 250 µM. Still for that read-out and setting: as for `C1CNCCNCCNCCNCCNCCN1` [1,4,7,10,13,16-Hexaazacyclooctadecane], the figure is greater than 500 µM; as for `NCCC(=O)N[C@@H](Cc1c[nH]cn1)C(=O)O` [beta-Alanyl-L-histidine (L-Carnosine), beta-Alanyl-L-histidine], greater than 500 µM; as for `S=C(N=Nc1ccccc1)NNc1ccccc1` [1,5-Diphenyl-1,2,4,5-tetraazapent-1-en-3-thione], 62.5 µM. Still for that read-out and setting: as for `Cc1c(O)c(=O)ccn1C` [3-Hydroxy-1,2-dimethyl-4(1H)-pyridone], the figure is 719 µM. As to `CCCCCCCCOc1cccc(=O)n1O` [HP-101, N-Hydroxy-6-octyloxypyridine-2(1H)one, ethanolamine salt], the 50% inhibitory concentration (IC50) is 54.6 µM. Still for that read-out and setting: the value for `Oc1c(I)cc(Cl)c2cccnc12` [5-Chloro-8-hydroxy-7-iodoquinoline] was 65.5 µM. Take `O=C(O)CN1CCCN(CC(=O)O)CCN(CC(=O)O)CCCN(CC(=O)O)CC1` [1,4,8,11-Tetraazacyclotetradecane-N,N',N",N'''-tetraacetic acid]: the 50% inhibitory concentration (IC50) is greater than 500 µM. As to `c1ccc(-c2cccc(-c3ccccn3)n2)nc1` [2,2':6',2"-terpyridine], the IC50 worked out at 86 µM.

For `Oc1ccc(N=Nc2nccs2)c(O)c1` [4-(2-thiazolylazo)-resorcinol], the IC50 was greater than 900 µM. Consider `O=c1cc(CO)occ1O` [kojic acid], for which the IC50 was 704 µM.

Consider `Cc1occc(=O)c1O` [maltol], for which the 50% inhibitory concentration (IC50) amounted to 793 µM. As for `c1ccc(CN(CCN(Cc2ccccn2)Cc2ccccn2)Cc2ccccn2)nc1` [N,N,N',N-tetrakis(2-pyridylmethyl) ethylenediamine], the IC50 worked out at 71 µM. Still for that read-out and setting: the value for `NCCc1ccccn1` [2-(2-aminoethyl)-pyridine] was greater than 500 µM; that for `O=C(O)CN(CCO)CCO` [N,N-Bis(2-hydroxyethyl)glycine (Bicine), N,N-Bis(2-hydroxyethyl)glycine] was greater than 500 µM; that for `c1cnc2c(c1)ccc1cccnc12` [1,10-Phenanthroline] was 166 µM. On the same count and under the same terms, the value for `Oc1c(Cl)cc(Cl)c2cccnc12` [5,7-dichloro-8-hydroxyquinoline] was 23.4 µM; that for `Oc1cccc2cccnc12` [8-hydroxyquinoline] was 138 µM. On the same count and under the same terms, as for `Cc1ccc2ccc3ccc(C)nc3c2n1` [2,9-dimethyl-1,10-phenanthroline], the figure is greater than 480 µM.

Still in this test, the particulars now being: comment on Table 1 data.
As for `O=C(O)CN(CCN(CC(=O)O)CC(=O)O)CC(=O)O` [Ethylenediaminetetraacetic acid (EDTA), Ethylenediaminetetraacetic acid], the “anti-fungal effectiveness (in words)” value is listed as “not to be effective”.

The same test, now with this note: mDixon medium, overnight at 31°, optical density 600 nm; read-out: Intrinsic Anti-Malassezia Potency (IC50).
“zinc salt of 1-hydroxy-2-pyridinethione [Zinc Pyrithione]”: the IC50 is 15 µM.
